The test system of one data set is influenza B strain (Lee). Nature of the data set: Chemical library screen, CPE reduction assay, influenza B. In kind it is cell-based, influenza B virus. The note with it: 20 µM.
In data set [1] the test system is PR8 virus (viral proteins NP, HA, M1). In kind it is cell-based, influenza A virus. The note with it: […]; nylidrin 100 μM, OSV-C 10 μM, RBV 100 μM.
Data set [2] deals with A/Puerto Rico/8/1934 (H1N1). Particulars: MDCK cells.
For data set [3], the system named is A/California/7/2009 (H1N1). Particulars: MDCK cells.
For data set [4], the system named is A/Brisbane/59/2007 (H1N1). Particulars: MDCK cells.
Data set [5] has as its system A/Seoul/11/1988 (H3N2). Particulars: MDCK cells.
Data set [6] deals with A/Puerto Rico/8/1934 (H1N1). Nature of the data set: microbe, parasite or virus in culture. Particulars: Influenza A virus, H1N1, MDCK, 72 h, read-out: EC50 against A/Puerto Rico/8/1934 (H1N1).
The test system of data set [7] is A/Hong Kong/8/1968 (H3N2). In words: microbe, parasite or virus in culture. Particulars: Influenza A virus, H3N2, MDCK, 72 h, read-out: EC50 against A/Hong Kong/8/1968 (H3N2).
The subject of another data set is B/Lee/40. In words: microbe, parasite or virus in culture. Particulars: Influenza B virus, MDCK, 72 h, read-out: EC50 against B/Lee/40.
In data set [8] the test system is A/California/7/2009 (H1N1). Nature of the data set: microbe, parasite or virus in culture. The note with it: Influenza A virus, H1N1, MDCK, 72 h, read-out: EC50 against A/California/7/2009 (H1N1).
The test system of data set [9] is A/Brisbane/59/2007 (H1N1). Nature of the data set: microbe, parasite or virus in culture. The note with it: Influenza A virus, H1N1, MDCK, 72 h, read-out: EC50 against A/Brisbane/59/2007 (H1N1).
Data set [10] relates to A/Seoul/11/1988 (H3N2). In words: microbe, parasite or virus in culture. Particulars: Influenza A virus, H3N2, MDCK, 72 h, read-out: EC50 against A/Seoul/11/1988 (H3N2).
The next data set relates to A/Perth/16/2009 (H3N2). Nature of the data set: microbe, parasite or virus in culture. The note with it: Influenza A virus, H3N2, MDCK, 72 h, read-out: EC50 against A/Perth/16/2009 (H3N2).
For data set [11], the system named is A/Brisbane/10/2007 (H3N2). Nature of the data set: microbe, parasite or virus in culture. The note with it: Influenza A virus, H3N2, MDCK, 72 h, read-out: EC50 against A/Brisbane/10/2007 (H3N2).
Data set [12] deals with A/Victoria/361/2011-like (H3N2). Nature of the data set: microbe, parasite or virus in culture. The note with it: Influenza A virus, H3N2, MDCK, 72 h, read-out: EC50 against A/Victoria/361/2011-like (H3N2).
The next data set concerns B/Brisbane/60/2008. In words: microbe, parasite or virus in culture. Particulars: Influenza B virus, MDCK, 72 h, read-out: EC50 against B/Brisbane/60/2008.
Data set [13] deals with influenza A viruses (PR8 and HK). In words: microbe, parasite or virus in culture. Particulars: PR8, MDCK, read-out: viability of infected MDCK cells.
Data set [14] is described as follows: Cytotoxicity to mock-infected MDCK cells (MTT). Particulars: dog.

Where two headings read alike, the source gives them in different places.

The term viability denotes a per cent measure of how many cells are alive, often set against a control. The CC50 is the concentration at which the toxic effect on the cells reaches its halfway point. A lower CC50 goes with greater toxicity to the cells. In the case of `CC(CCc1ccccc1)NC(C)C(O)c1ccc(O)cc1` (stereo not shown) [Nylidrin, nylidrin], in the data set with influenza B strain (Lee), the CPE-reduction result is “no benefit”. The “viral proteins NP, HA and M1 (western blot)” value in [1] was “not detected”. The entries for the “S.I. (CC50/EC50), A/Puerto Rico/8/1934 (H1N1)” value in [2] and in data set [2] (listed as nylidrin) were “(76.3)” and 76.3, respectively. Besides, in [3], the “S.I. (CC50/EC50), A/California/7/2009 (H1N1)” value is reported as “(332.8)”. Besides, the “S.I. (CC50/EC50), A/Brisbane/59/2007 (H1N1)” value in data set [4] was “(156.9)”. The “S.I. (CC50/EC50), A/Seoul/11/1988 (H3N2)” value in the data set on A/Seoul/11/1988 (H3N2) [5] is “(14.3)”. In addition, the EC50 is 7.2 ± 0.2 µM in data set [6]; 12.1 ± 1.6 µM in data set [7]; over 100 µM in the data set with B/Lee/40; 1.7 ± 0.5 µM in data set [8]; 3.5 ± 1.6 µM in data set [9]; 38.8 ± 19.4 µM in the data set on A/Seoul/11/1988 (H3N2) [10]. Further, the EC50 (in the data set on A/Perth/16/2009 (H3N2); in [11]; in data set [12]; in the data set on B/Brisbane/60/2008) was over 100 µM in each case. Moreover, the viability at 20 µM in data set [13] was found to be 80%. Also, the 50% cytotoxic concentration (CC50) at 3 days in data set [14] worked out at 549.2 ± 0.5 µM.

The values above are taken from PMC7290441 (Viruses, 2020).
